The source of these data is US20230104936A1, “TRPML MODULATORS” (Casma Therapeutics, Inc., priority 2019, published 2023).

The test has as its system TFEB. In words: TFEB nuclear translocation assay, HeLa wt cells. The test is classed as cell-based. Conditions: 2 hrs compound treatment, Table 1 does not say HeLa wt or TRPML1 KO. Summed up: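 Read-out is the ratio of TFEB immunofluorescence in the nucleus to that in a ring just outside it, measured by automated imaging. HeLa wt cells received compounds for 2 hrs at 37° C before fixation and staining; AC50 values come from this ratio.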

For the molecule `C[C@@H]1COC[C@H](C)N1CC1CN(c2c(F)cccc2NS(=O)(=O)c2ccc(S(=O)(=O)N(C)C)cc2)C1` [Compound A-900, N4-[2-(3-{[(3R,5S)-3,5-dimethylmorpholin-4-yl]methyl}azetidin-1-yl)-3-fluorophenyl]-N1,N1-dimethylbenzene-1,4-disulfonamide], the AC50 (usually the concentration at which the activity in the assay is half-maximal) (Homo sapiens, HeLa, 2 h) was at least 10 µM.
For the molecule `CC(C)c1ccc(S(=O)(=O)Nc2ccccc2N2CCC3(CC2)COC(C)(C)C3)cc1` [Compound A-658, N-(2-{3,3-dimethyl-2-oxa-8-azaspiro[4.5]decan-8-yl}phenyl)-4-(propan-2-yl)benzene-1-sulfonamide], the AC50 (Homo sapiens, HeLa, 2 h) was at most 2 µM.
The same measure, in the same setting: with `COCC1(C)CCN(c2ccccc2NS(=O)(=O)Cc2cccc(C#N)c2)CC1` [Compound A-581, 1-(3-cyanophenyl)-N-{2-[4-(methoxymethyl)-4-methylpiperidin-1-yl]phenyl}methanesulfonamide] the figure was 2.01 to 8 µM.
The molecule `O=S(=O)(Nc1cccc(F)c1N1CCC(CN2C3COCC2C3)CC1)c1ccc2c(c1)CCC2` [Compound A-876, N-{3-fluoro-2-[4-({3-oxa-6-azabicyclo[3.1.1]heptan-6-yl}methyl)piperidin-1-yl]phenyl}-2,3-dihydro-1H-indene-5-sulfonamide] displayed an AC50 (Homo sapiens, HeLa, 2 h) of at least 10 µM.
The same measure, in the same setting: with `CN1Cc2cc(F)ccc2C12CCN(c1ccccc1NS(=O)(=O)c1ccc(S(=O)(=O)N(C)C)cc1)CC2` [Compound A-310, N4-(2-{5-fluoro-2-methyl-2,3-dihydrospiro[isoindole-1,4′-piperidin]-1′-yl}phenyl)-N1,N1-dimethylbenzene-1,4-disulfonamide; formic acid] the figure was at most 2 µM.
In turn, `CC(c1cccc(F)c1N1CCC(COC(C)(C)C)CC1)S(=O)(=O)c1ccc(C(F)F)cc1` (single isomer, unassigned) [Compound A-977, 4-(tert-butoxymethyl)-1-(2-(1-((4-(difluoromethyl)phenyl)sulfonyl)ethyl)-6-fluorophenyl)piperidine] returned an AC50 of 2.01 to 8 µM.
Under “Homo sapiens, HeLa, 2 h”, `COCC1(C)CCN(c2ccccc2NS(=O)(=O)Cc2ccc(C(F)F)cc2)CC1` [Compound A-647, 1-[4-(difluoromethyl)phenyl]-N-{2-[4-(methoxymethyl)-4-methylpiperidin-1-yl]phenyl}methanesulfonamide] showed an AC50 of 8.01 to 9.99 µM.
The molecule `C[C@@H]1COC[C@@H](C)N1CC1CCN(c2c(F)cccc2NS(=O)(=O)c2ccc(S(=N)(=O)N(C)C)cc2)CC1` (stereo partly drawn) [Compound A-836, N-(2-(4-(((3S,5S)-3,5-dimethylmorpholino)methyl)piperidin-1-yl)-3-fluorophenyl)-4-(N,N-dimethylsulfamidimidoyl)benzenesulfonamide] displayed an AC50 of 2.01 to 8 µM.
`CN(C)S(=O)(=O)c1ccc(S(=O)(=O)Nc2ccccc2N2CCN(c3ccncc3F)CC2)cc1` [Compound A-57, N4-{2-[4-(3-fluoropyridin-4-yl)piperazin-1-yl]phenyl}-N1,N1-dimethylbenzene-1,4-disulfonamide] showed an AC50 (Homo sapiens, HeLa, 2 h) of 2.01 to 8 µM.
`CN(C)S(=O)(=O)c1ccc(S(=O)(=O)Nc2ccccc2N2CCN(c3ccc(Cl)cc3F)CC2)cc1` [Compound A-12, N4-{2-[4-(4-chloro-2-fluorophenyl)piperazin-1-yl]phenyl}-N1,N1-dimethylbenzene-1,4-disulfonamide] gave an AC50 (Homo sapiens, HeLa, 2 h) of at most 2 µM.
`CC(c1cccc(F)c1N1CCCCC1)S(=O)(=O)c1ccc(S(=N)(=O)C(F)F)cc1` (single isomer, unassigned) [Compound A-940, (difluoromethyl)(4-((1-(3-fluoro-2-(piperidin-1-yl)phenyl)ethyl)sulfonyl)phenyl)(imino)-l6-sulfanone] showed an AC50 of at most 2 µM.
Consider `CC1(C)CC2(CCN(c3ccccc3NS(=O)(=O)C3=Cc4ccccc4CC3)CC2)CO1` [Compound A-676, N-(2-{3,3-dimethyl-2-oxa-8-azaspiro[4.5]decan-8-yl}phenyl)-3,4-dihydronaphthalene-2-sulfonamide], for which the AC50 (Homo sapiens, HeLa, 2 h) was in the range of 2.01 to 8 µM.
Turning to `CC1(C)CC2(CCN(c3ccccc3NS(=O)(=O)c3cnn(C4CCC4)c3)CC2)CO1` [Compound A-666, 1-cyclobutyl-N-(2-{3,3-dimethyl-2-oxa-8-azaspiro[4.5]decan-8-yl}phenyl)-1H-pyrazole-4-sulfonamide], where the note is “Homo sapiens, HeLa, 2 h”, the AC50 lay in the range of 2.01 to 8 µM.
In turn, `CN(C)S(=O)(=O)c1ccc(S(=O)(=O)N(C)c2cc(Cl)ccc2N2CCOCC2)cc1` [Compound A-285, N1-[5-chloro-2-(morpholin-4-yl)phenyl]-N1,N4,N4-trimethylbenzene-1,4-disulfonamide] returned an AC50 (Homo sapiens, HeLa, 2 h) of at least 10 µM.
Same read-out and setting: the value for `COCC1(C)CCN(c2ccccc2C(C)S(=O)(=O)c2ccc(S(=O)(=O)N(C)C)cc2)CC1` (single isomer, unassigned; enantiomer 1) [Compound A-698, 4-((1-(2-(4-(methoxymethyl)-4-methylpiperidin-1-yl)phenyl)ethyl)sulfonyl)-N,N-dimethylbenzenesulfonamide, enantiomer 1] was at most 2 µM; that for `CN(C)S(=O)(=O)c1ccc(S(=O)(=O)Nc2ccccc2N2CCN(C(=O)C3(F)CC3)CC2)cc1` [Compound A-461, N4-{2-[4-(1-fluorocyclopropanecarbonyl)piperazin-1-yl]phenyl}-N1,N1-dimethylbenzene-1,4-disulfonamide] was 2.01 to 8 µM.
`COCC1(C)CCN(c2ccccc2C(C)S(=O)(=O)c2ccc(S(=O)(=O)N(C)C)cc2)CC1` (single isomer, unassigned; enantiomer 2) [Compound A-699, 4-((1-(2-(4-(methoxymethyl)-4-methylpiperidin-1-yl)phenyl)ethyl)sulfonyl)-N,N-dimethylbenzenesulfonamide, enantiomer 2] returned an AC50 of 2.01 to 8 µM.
As to `COc1ccc(S(=O)(=O)Nc2cnccc2N2CCC(c3ncc(F)cc3F)CC2)cc1` [Compound A-193, N-{4-[4-(3,5-difluoropyridin-2-yl)piperidin-1-yl]pyridin-3-yl}-4-methoxybenzene-1-sulfonamide], for the setting “Homo sapiens, HeLa, 2 h”, the AC50 is at least 10 µM.
Still for that read-out and setting: the value for `CN(C)S(=N)(=O)c1ccc(S(=O)(=O)Nc2ccccc2N2CCN(C(=O)C(C)(C)C)CC2)cc1` (stereo not shown) [Compound A-321, 4-({2-[4-(2,2-dimethylpropanoyl)piperazin-1-yl]phenyl}sulfamoyl)-N,N-dimethylbenzene-1-sulfonoimidamide] was at least 10 µM; that for `CN(C)S(=N)(=O)c1ccc(S(=O)(=O)Nc2ccccc2N2CCC(COC(F)(F)CF)CC2)cc1` (stereo not shown) [Compound A-877, N,N-dimethyl-4-[(2-{4-[(1,1,2-trifluoroethoxy)methyl]piperidin-1-yl}phenyl)sulfamoyl]benzene-1-sulfonoimidamide] was at most 2 µM.
The same measure, in the same setting: with `CC(c1cccc(F)c1N1CCC(C)(C(F)F)CC1)S(=O)(=O)c1ccc(S(=O)(=O)N(C)C)cc1` (single isomer, unassigned) [Compound A-925, 4-((1-(2-(4-(difluoromethyl)-4-methylpiperidin-1-yl)-3-fluorophenyl)ethyl)sulfonyl)-N,N-dimethylbenzenesulfonamide] the figure was at most 2 µM; with `COCC1(C)CCN(c2ccccc2NS(=O)(=O)Cc2ccccc2)CC1` [Compound A-532, N-{2-[4-(methoxymethyl)-4-methylpiperidin-1-yl]phenyl}-1-phenylmethanesulfonamide], at most 2 µM.
